We go through 1 molecule from patent US20060269482A1 (priority 2005, published 2006).

As usually defined, the IC50 is the concentration that gives 50% inhibition. What is called IC90 is the concentration needed for an effect of 90%.

Assay [1] deals with Rb phosphorylation in human PBMCs. Put plainly: Rb phosphorylation in human PBMCs treated ex vivo. Format: cell-based. The following applies: PMA stimulated, 0.2 to 2.0 μM, Western blot. The protocol: Approximately 10 mls of blood was collected from five healthy human volunteers into sodium heparin treated Vacutainer blood collection tubes by Employee Health Services. PBMCs were separated using the Lymphocyte Separation Medium (LSM) and protocol supplied by ICN Biomedicals Inc. (Costa Mesa, Calif.). Briefly whole blood was diluted 1:1 with cold HBSS (Hanks Balanced Salt Solution), layered onto the LSM and centrifuged. The band of mononuclear cells above the LSM was collected, transferred to a new tube and washed once with cold HBSS. Cells were resuspended in RPMI 1640, 10% HI-FBS, 2 mM L-glutamine and 0.01 mg/ml Gentamicin Reagent Solution (GIBCO/Invitrogen). […]
PBMCs were collected by transferring the cells, including attached cells and those in suspension, into 50 ml tubes. […] Samples were sonicated on ice for 30 seconds, clarified by centrifugation at 16,000×g for 10 minutes at 4° C. and protein concentrations determined using Non-Interfering Protein Assay Kit (Geno Technology Incorporated, Maplewood, Mo.). […] For Western blotting, total Rb was detected using antibody from Pharmingen (BD Bioscience, San Diego, Calif.) at a dilution of 1:2000. Lysates were analysed by Western blotting for Rb phosphorylation using polyclonal antibodies against phosphorylated serine 795, serine 780, threonine 821 and serine 807/811 in human Rb (FIG. 8). […]
(In western blotting, separated proteins are transferred to a membrane and probed.)

Assay [2] deals with retinoblastoma protein (Rb) phosphorylation in HCT116 cells. The assay is described as follows: Rb phosphorylation in HCT116 cells by Western blot and ELISA. Format: cell-based, human. Conditions: HCT116, 20 hours, 0.1, 0.2 and 0.6 μM. As to the method:
Cells were washed 3 times with cold PBS on ice and scraped from the flasks. All cells were collected in 15 ml tubes. Cells were pelleted by centrifugation and lysis buffer was added (1:1 PBS: 2× Tris-Glycine SDS Sample Buffer (Invitrogen, Carlsbad, Calif.) containing 5% 2-β mercaptoethanol). The volume of lysis buffer used was 5 ul per 1×10^6 cells. Samples were sonicated for 30 seconds on ice. Following sonication, samples were clarified by centrifugation at 16,000×g for 10 minutes at 4° C. and protein concentrations were determined using Non-Interfering Protein Assay Kit (Geno Technology Incorporated, Maplewood, Mo.). Proteins were denatured by boiling for 5 minutes and centrifuged as described above. […] For Western blotting, total Rb was detected using antibody from Pharmingen (BD Bioscience, San Diego, Calif.) at a dilution of 1:2000. The phosphorylation status of Rb at serine 780, serine 795 and serine 807/811 was detected with phosphospecific antibodies at dilutions of 1:1000 (Cell Signaling Technology, Beverly, Mass.). […]
HCT116 cells were treated for 20 hours at the IC50 (0.1 μM), IC90 (0.2 μM) and 3×IC90 (0.6 μM) concentrations for cell growth inhibition, as determined in a 5-day proliferation assay. Lysates were analyzed by Western blotting for Rb phosphorylation at serine 795 and serine 780 (FIG. 1). […]

For a further assay, the system named is HCT116 cells. The assay is described as follows: 5-day proliferation assay, cell growth inhibition. The assay is classed as cell-based. The following applies: Homo sapiens, HCT-116, 120 h; HCT116, 5-day proliferation assay.
In another assay the test system is MTLn3 cells. Put plainly: cell growth inhibition in rat tumor cell line. The assay is classed as cell-based.
Assay [3] concerns retinoblastoma protein (Rb) phosphorylation in MTLn3 cells. Put plainly: Rb phosphorylation in MTLn3 cells by Western blot. The assay is classed as cell-based, rat. Conditions: MTLn3, 20 hours, 0.17, 0.24 and 0.72 μM. As to the method:
Cells were washed 3 times with cold PBS on ice and scraped from the flasks. All cells were collected in 15 ml tubes. Cells were pelleted by centrifugation and lysis buffer was added (1:1 PBS: 2× Tris-Glycine SDS Sample Buffer (Invitrogen, Carlsbad, Calif.) containing 5% 2-β mercaptoethanol). The volume of lysis buffer used was 5 ul per 1×10^6 cells. Samples were sonicated for 30 seconds on ice. Following sonication, samples were clarified by centrifugation at 16,000×g for 10 minutes at 4° C. and protein concentrations were determined using Non-Interfering Protein Assay Kit (Geno Technology Incorporated, Maplewood, Mo.). Proteins were denatured by boiling for 5 minutes and centrifuged as described above. […] For Western blotting, total Rb was detected using antibody from Pharmingen (BD Bioscience, San Diego, Calif.) at a dilution of 1:2000. The phosphorylation status of Rb at serine 780, serine 795 and serine 807/811 was detected with phosphospecific antibodies at dilutions of 1:1000 (Cell Signaling Technology, Beverly, Mass.).
Lysates were analyzed by Western blotting for Rb phosphorylation using polyclonal antibodies prepared against a peptide corresponding to sequences surrounding phosphorylated serine 807/811 in human Rb (FIG. 3).

Regarding `COc1ccc(F)c(F)c1C(=O)c1cnc(NC2CCN(S(C)(=O)=O)CC2)nc1N` [COMPOUND A, [4-amino-2-(1-methanesulfonylpiperidin-4-ylamino)pyrimidin-5-yl]-(2,3-difluoro-6-methoxyphenyl)methanone], the “Rb phosphorylation at the serine 807/811 site” value in assay [1] (human PBMCs of two donors) was “complete inhibition of phosphorylation”. In assay [1] (human PBMCs, 24 hours incubation), the “Rb phosphorylation at the threonine 821 site” value is “not inhibited at any concentration”. In addition, the “Rb phosphorylation at serine 795, serine 780 (Western blot) and threonine 821 (ELISA)” value in assay [2] is “inhibition of phosphorylation at all three CDK phosphorylation sites in a concentration-dependent fashion”. In the assay on HCT116 cells, half-maximal inhibition (IC50) was put at 100 nM and the concentration for an effect of 90% (IC90) was 200 nM. Moreover, in the assay with MTLn3 cells, the midpoint of inhibition, the IC50, lay at 170 nM and the IC90 is 240 nM. In addition, the “Rb phosphorylation at epitope recognized by anti-phospho-serine 807/811 antibody” value in assay [3] is on record as “inhibition of phosphorylation”.
